According to patent US20030170223A1, “Pulmonary vasodilator surfactant compositions and method of use” (Board of Trustees of Michigan State University, priority 2002, published 2003):

Legend:
elevated PVR = test: GBS-induced pulmonary hypertension, pilot experiments; assay type: in vivo, rats
Procedure: Experimental Protocol is as follows. Fifteen rats were randomly assigned to 1 of 3 groups. Measurements taken at each time point included arterial and mixed venous blood gases, inert gas determinations in samples of arterial blood, mixed venous blood and expired gas, and TNF and TxB2 assays, mean P sa′ mean PAP, P pcw′ and CO from arterial blood, and PVR (PVR=PAP−P pcw/CO), and systemic vascular resistance (SVR=P sa/CO) were calculated at each time point.
After baseline measurements, all rats received continuous infusion of GBS (1.25×10^9 cfu/kg/hr) for 5 hours. Repeat measurements were made at 0.5, 4.0, 4.5, and 5.0 hr of GBS infusion. After 4 hours of GBS infusion, treated animals received amr (amr 10 and amr 20) (Inocor lactate, Sterling Drug Co., New York, N.Y.); control animals (control) received the amr carrier solution containing lactic acid and sodium metabisulfite. Amr 10 rats (n=5; 11.2: t 4.1 days; 3.0: t 0.5 kg) received an amr bolus (8 mg/kg) followed by a continuous infusion of amr diluted with normal saline (10 about g/kg/min) for 1 hour. Amr 20 rats (n=5; 9.2 t 2.2 days; 2.2: t 0.4 kg) received the same amr bolus (8 mg/kg) followed by a continuous infusion of amr diluted with normal saline (20 about g/kg/min) for 1 hour. […]

[1] = system: non-septic forms of pulmonary hypertension; conditions: infusion rates of 10 to 40 about g/kg/min, human studies; cited from earlier work
TNF-α = TNF-α (Homo sapiens, UniProt P01375); conditions: Fichtlscherer (2001); cited from earlier work
Chain of TNF-α (P01375 77-233 limits assumed): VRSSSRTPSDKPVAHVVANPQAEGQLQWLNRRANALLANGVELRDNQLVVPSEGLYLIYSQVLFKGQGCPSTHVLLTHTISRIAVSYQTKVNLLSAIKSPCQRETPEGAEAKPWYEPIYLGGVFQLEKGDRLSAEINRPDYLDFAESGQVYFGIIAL

Row | Compound | effect on elevated PVR (elevated PVR) | reversal of non-septic pulmonary hypertension [1] | systemic endothelial vasodilator capacity (TNF-α)
1 | CC(O)C(=O)O.Nc1cc(-c2ccncc2)c[nH]c1=O [amr] | acute reduction in elevated PVR | successful in reversing | –
2 | ETANERCEPT | – | – | profoundly improves
